In patent publication US10077238B2, “Small molecule LFA-1 inhibitors” (ALLOCYTE PHARMACEUTICALS AG, priority 2014, dated 2018):
Where “and” joins values, the source holds several entries; their conditions need not be identical. Equal entries are not always repeated.

Columns and labels:
Format in all cases: cell-based
VLA-4 = target: T1, VLA-4 (Homo sapiens, UniProt P05556+P13612); test: V well cell adhesion assay, VLA-4-mediated Jurkat cell binding to VCAM-1 (VLA-4 adhesion); conditions: Jurkat cells on VCAM-1 Fc; single experiments run in triplicates
T1 construct: endogenous in cells; host or cells: Jurkat cells
Protocol: Cell-Based Assay to Determine the Selectivity of the Compounds Over the Integrin VLA-4 (VLA-4 Adhesion)
Purpose of the Assay: This V well cell adhesion assay measures the effect of the compounds on VLA-4-mediated Jurkat cell binding to VCAM-1. The assay has been successfully used in the past to determine the selectivity of small molecule LFA-1 inhibitors over the integrin VLA-4.
Experimental Protocol: The adhesion assay was performed as described above for the Jurkat/ICAM-1 V well adhesion assay. Briefly, plates were coated with anti-human IgG mAb and blocked with BSA as described above. Instead of ICAM-1, recombinant human VCAM-1/CD106 Fc chimera (R&D Systems) was coated onto the plates (0.3 μg/mL in coating buffer). After incubation, labelled Jurkat cells in binding buffer were transferred to the wells (20,000 cells/well). The plates were immediately centrifuged at 1000 rpm for 4 min at rt (Centrifuge Eppendorf 5810 R) setting the brakeoff. Non-adherent cells were quantified in the tip of the Vbottom well using a fluorescence reader. IC50 values of the compounds were calculated using the software GraphPad Prism 6.

LFA-1 [1] = target: T2, LFA-1 (Homo sapiens, UniProt P20701); test: V well cell adhesion assay, LFA-1-mediated Jurkat cell binding to ICAM-1 (LFA-1 adhesion); conditions: Jurkat cells on ICAM-1/Fc; mean ±SD of ≥3 independent experiments in triplicates or single experiments in triplicates
T2 construct: endogenous in cells; host or cells: Jurkat cells
Protocol: Cell-Based Assay to Determine the Effect of the Compounds on LFA-1-Mediated Cell Adhesion (LFA-1 Adhesion)
Purpose of the Assay: The V well cell adhesion assay measures the ability of the compounds to interfere with LFA-1-mediated binding to ICAM-1 at cellular level. The assay has been successfully used in the past to identify and characterize small molecules LFA-1 inhibitors.
Experimental Protocol: The adhesion assay was performed in Vbottom 96-well plates as described previously [Weitz-Schmidt 2012]. Briefly, the plates were coated with anti-human IgG mAb diluted in coating buffer (20 mM Tris containing 150 mM NaCl, pH 8) (1 μg/mL) and incubated overnight at 4° C. The plates were flicked out and blocked with blocking buffer (50 mM Tris base, 150 mM NaCl, 1.5% BSA (w/v), pH 7.2) at 37° C. for 90 min. Then human recombinant ICAM-1/Fc (R&D Systems) diluted in coating buffer (0.3 μg/mL) was added to each well. The plates were incubated at 37° C. for 90 min and washed with binding buffer (50 mM Tris base, 150 mM NaCl, 1.5% BSA (w/v), 2 mM MgCl2, 2 mM MnCl2, 5 mM D-glucose monohydrate, pH 7.2-7.4) to remove unbound ligand.
Jurkat cells were cultured under standard conditions as recommended by the American Type Culture collection (ATCC). The cells were fluorescently labelled with BCECF-AM in PBS (1 μg/mL) at 37° C. for 20 min in the dark, centrifuged and washed with PBS. The test compounds were dissolved in DMSO at 10 mM and serially pre-diluted in DMSO (100%) to avoid precipitation, before performing final dilution steps in binding buffer.
The labelled Jurkat cells were re-suspended in binding buffer and test compounds or solvent control were added. The DMSO concentration was kept constant in all samples (1% DMSO as final assay concentration). After 40 min at 37° C. (LFA-1 activation and compound pre-incubation step) the cell suspension (3×10^5 cells/mL in binding buffer) was pipetted up and down and transferred to the ligand-coated microtiter V well plates (30 000 cells/well). The plates were centrifuged for 4 min at room temperature (rt) at 1000 rpm (Centrifuge Eppendorf 5810 R), setting the brake off Non-adherent cells that accumulated in the center of the Vbottom were quantified using a fluorescence reader with the filter sets allowing excitation at 485 nm and quantification of emission at 535 nm. The determination of the half maximal inhibitory concentration (IC50) of the compounds was calculated using the software GraphPad Prism 6.

LFA-1 [2] = target: T2, LFA-1; test: Flow cytometry, mAb R7.1 binding to LFA-1 expressed on leukocytes; conditions: Jurkat cells or human PBMCs, values of independent experiments; for inhibition at 1 µM: Jurkat
Protocol: Measurement of mAb R7.1 binding to LFA-1 (mAb R7.1 binding)
Purpose of the Assay: This flow cytometry assay determines the effect of the compounds on the binding of the anti-LFA-1 mAb R7.1 to LFA-1 expressed on leukocytes.
Experimental Protocol: Jurkat cells or human peripheral blood mononuclear cells (PBMCs) were resuspended in assay buffer (50 mM Tris, 150 mM NaCl, 2 mM MgCl2, 1.5% BSA and 5 mM D-glucose monohydrate, pH7.2) at 2×10^6 cells/mL and 500 μL of this cell suspension (1×10^6 cells) were transferred into polypropylene tubes containing the test compounds diluted in 500 μL assay buffer. The samples were pre-incubated at 37° C. for 40 min, and centrifuged. The supernatants were removed and FITC-labelled anti-LFA-1 mAb R7.1 and PE-labeled anti-LFA-1 mAb TS2/4 (mAb TS2/4 is not affected by alpha I allosteric inhibitor binding to LFA-1) or appropriate isotype controls were added directly to each cell pellet. The pellets were then gently pipetted up and down and incubated on ice for 30 min in the dark. After the incubation step the cells were washed twice with PBS and resuspended in PBS.
Antibody binding was analyzed by flow cytometry. Mean fluorescence intensities (MFI) were calculated using the CellQuest software. The values are expressed as % of solvent control (solvent control=100% binding).

T1 sequence (P13612 34-1032): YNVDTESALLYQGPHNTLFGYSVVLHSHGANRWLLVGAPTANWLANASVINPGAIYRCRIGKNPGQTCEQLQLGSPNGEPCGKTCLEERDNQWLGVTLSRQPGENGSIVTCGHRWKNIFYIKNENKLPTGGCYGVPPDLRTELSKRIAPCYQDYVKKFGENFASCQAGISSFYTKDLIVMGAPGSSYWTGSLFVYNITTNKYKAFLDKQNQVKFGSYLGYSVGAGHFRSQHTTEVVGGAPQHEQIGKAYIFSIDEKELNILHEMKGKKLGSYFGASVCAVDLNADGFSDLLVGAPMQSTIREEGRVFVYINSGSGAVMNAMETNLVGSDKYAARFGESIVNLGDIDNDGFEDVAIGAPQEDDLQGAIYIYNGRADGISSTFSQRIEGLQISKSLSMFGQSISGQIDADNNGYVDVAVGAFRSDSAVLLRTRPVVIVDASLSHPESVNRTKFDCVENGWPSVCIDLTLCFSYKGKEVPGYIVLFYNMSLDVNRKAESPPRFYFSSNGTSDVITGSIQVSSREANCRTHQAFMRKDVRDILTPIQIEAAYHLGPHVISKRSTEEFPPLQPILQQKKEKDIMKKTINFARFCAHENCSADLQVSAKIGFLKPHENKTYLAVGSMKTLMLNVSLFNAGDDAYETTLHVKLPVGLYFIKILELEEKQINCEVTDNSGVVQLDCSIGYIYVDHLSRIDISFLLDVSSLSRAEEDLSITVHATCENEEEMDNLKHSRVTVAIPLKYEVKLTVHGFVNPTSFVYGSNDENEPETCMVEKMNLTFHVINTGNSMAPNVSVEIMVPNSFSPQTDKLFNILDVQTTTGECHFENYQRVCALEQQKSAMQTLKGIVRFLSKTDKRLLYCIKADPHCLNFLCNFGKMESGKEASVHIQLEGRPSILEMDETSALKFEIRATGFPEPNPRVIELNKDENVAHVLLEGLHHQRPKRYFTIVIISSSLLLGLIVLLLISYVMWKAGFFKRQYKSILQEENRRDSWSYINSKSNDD
T1 sequence (P05556 21-798): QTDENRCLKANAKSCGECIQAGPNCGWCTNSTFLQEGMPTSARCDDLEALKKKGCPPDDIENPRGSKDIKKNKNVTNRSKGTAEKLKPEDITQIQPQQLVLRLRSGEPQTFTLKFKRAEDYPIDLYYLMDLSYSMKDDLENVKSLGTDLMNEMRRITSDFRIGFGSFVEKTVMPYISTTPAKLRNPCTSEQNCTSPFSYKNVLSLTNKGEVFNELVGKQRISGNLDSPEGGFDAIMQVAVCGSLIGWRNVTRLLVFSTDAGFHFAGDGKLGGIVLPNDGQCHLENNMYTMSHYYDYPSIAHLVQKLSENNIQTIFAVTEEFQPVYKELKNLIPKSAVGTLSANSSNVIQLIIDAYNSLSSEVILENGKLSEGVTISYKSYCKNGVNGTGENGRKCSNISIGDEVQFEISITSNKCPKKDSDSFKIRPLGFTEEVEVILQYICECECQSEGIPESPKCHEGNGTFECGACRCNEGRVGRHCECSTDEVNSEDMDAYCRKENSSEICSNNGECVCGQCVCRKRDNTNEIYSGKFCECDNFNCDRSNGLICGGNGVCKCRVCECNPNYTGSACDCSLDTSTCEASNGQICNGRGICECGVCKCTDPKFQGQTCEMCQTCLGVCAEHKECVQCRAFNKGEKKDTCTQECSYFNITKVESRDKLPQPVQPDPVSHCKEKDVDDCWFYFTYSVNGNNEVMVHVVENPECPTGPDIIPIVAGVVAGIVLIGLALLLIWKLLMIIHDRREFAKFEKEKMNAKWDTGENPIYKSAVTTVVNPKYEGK
T2 sequence (P20701 26-1170): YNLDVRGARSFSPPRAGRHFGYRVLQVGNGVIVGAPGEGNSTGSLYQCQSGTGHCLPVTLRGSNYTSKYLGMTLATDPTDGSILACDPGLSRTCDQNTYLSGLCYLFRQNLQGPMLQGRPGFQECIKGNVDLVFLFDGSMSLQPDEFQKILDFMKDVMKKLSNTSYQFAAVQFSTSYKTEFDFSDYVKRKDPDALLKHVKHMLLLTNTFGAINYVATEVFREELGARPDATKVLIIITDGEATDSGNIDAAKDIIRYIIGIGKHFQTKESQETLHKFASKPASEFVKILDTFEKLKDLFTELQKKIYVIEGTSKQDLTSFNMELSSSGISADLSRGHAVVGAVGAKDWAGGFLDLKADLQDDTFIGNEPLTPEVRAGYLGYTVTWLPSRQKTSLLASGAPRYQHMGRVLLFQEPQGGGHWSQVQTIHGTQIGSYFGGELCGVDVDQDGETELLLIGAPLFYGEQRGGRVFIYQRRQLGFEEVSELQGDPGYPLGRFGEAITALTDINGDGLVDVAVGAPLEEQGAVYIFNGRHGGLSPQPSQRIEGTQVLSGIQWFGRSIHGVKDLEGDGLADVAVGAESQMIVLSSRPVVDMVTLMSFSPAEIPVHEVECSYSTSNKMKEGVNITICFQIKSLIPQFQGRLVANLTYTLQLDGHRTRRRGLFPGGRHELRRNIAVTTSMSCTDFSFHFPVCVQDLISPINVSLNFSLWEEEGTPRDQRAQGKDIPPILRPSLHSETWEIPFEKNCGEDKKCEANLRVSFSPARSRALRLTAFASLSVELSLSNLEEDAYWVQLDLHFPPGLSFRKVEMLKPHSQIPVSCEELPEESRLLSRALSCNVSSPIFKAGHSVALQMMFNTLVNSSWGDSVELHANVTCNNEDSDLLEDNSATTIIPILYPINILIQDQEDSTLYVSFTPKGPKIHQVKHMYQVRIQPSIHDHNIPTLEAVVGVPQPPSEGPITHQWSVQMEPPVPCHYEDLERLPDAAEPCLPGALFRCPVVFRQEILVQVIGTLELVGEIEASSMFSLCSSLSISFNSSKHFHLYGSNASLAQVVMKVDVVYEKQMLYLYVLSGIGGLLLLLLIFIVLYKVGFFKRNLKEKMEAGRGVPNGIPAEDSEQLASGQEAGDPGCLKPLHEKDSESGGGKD
T2 sequence (P05107 23-769 partner): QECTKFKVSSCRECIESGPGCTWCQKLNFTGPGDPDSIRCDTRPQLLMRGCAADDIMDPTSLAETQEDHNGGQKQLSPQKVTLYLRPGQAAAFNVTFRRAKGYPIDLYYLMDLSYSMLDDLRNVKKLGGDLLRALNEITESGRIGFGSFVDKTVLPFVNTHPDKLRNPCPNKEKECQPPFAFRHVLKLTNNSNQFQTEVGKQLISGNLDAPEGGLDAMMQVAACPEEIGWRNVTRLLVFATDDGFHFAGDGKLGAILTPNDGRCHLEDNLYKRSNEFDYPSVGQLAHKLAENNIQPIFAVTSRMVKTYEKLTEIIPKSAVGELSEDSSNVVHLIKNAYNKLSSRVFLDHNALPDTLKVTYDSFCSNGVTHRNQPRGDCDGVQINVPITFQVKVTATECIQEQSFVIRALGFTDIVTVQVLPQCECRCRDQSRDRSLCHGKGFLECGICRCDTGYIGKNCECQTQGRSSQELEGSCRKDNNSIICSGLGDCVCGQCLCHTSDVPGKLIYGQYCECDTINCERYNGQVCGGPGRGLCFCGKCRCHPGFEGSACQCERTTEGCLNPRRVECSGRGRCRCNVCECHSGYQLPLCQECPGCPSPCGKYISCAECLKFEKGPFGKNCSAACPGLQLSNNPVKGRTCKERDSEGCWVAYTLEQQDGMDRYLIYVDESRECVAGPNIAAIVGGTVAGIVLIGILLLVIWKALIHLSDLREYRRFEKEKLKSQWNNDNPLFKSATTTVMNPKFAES

Row | Compound | IC50 (VLA-4) [nM] | IC50 (LFA-1 [1]) | inhibition at 1 µM (LFA-1 [2]) [%] | mAb R7.1 binding % inhibition at 1 μM (LFA-1 [2]) [%]
1 | C[C@]12C(=O)N(c3cc(Cl)cc(Cl)c3)C(=O)[C@H]1C2(c1ccc(C#N)cc1)c1ccc(C#N)cc1 (racemic) [4v (racemate), rac-4-[(1S,5S)-6-(4-Cyanophenyl)-3-(3,5-dichlorophenyl)-1-methyl-2,4-dioxo-3-azabicyclo[3.1.0]hexan-6-yl]benzonitrile] | > 10000 | 45 ± 14 nM |  | 
2 | C[C@]12C(=O)N(c3cc(Cl)cc(Cl)c3)C(=O)[C@H]1[C@H]2c1ccccc1 (racemic) [4′d (racemate), rac-(1R,5S,6S)-3-(3,5-Dichlorophenyl)-1-methyl-6-phenyl-3-azabicyclo[3.1.0]hexane-2,4-dione] |  | 1540 ± 646 nM | 80.5 | 
3 | O=C1C2C(C(=O)N1c1cc(Cl)cc(Cl)c1)C2(c1ccncc1)c1ccc(OC(F)(F)F)cc1 (single isomer, unassigned) [4w or 4′w diastereomer II] |  | > 1000 nM |  | 45.7
4 | O=C1C2C(C(=O)N1c1cc(Cl)cc(Cl)c1)C2(c1ccncc1)c1ccc(OC(F)(F)F)cc1 (single isomer, unassigned) [4w or 4′w diastereomer I] | > 10000 | 215 ± 134 nM |  | 95.7
5 | CC12C(=O)N(c3cc(Cl)cc(Cl)c3)C(=O)C1C2(c1ccncc1)c1ccc(OC(F)(F)F)cc1 (single isomer, unassigned) [4x or 4′x diastereomer I (racemate), rac-(1 S, 5S, 6R)- and rac-(1 S, 5S, 6S)-3-(3,5-Dichlorophenyl)-1-methyl-6-(pyridin-4-yl)-6-[4-(trifluoromethoxy)phenyl]-3-azabicyclo[3.1.0]hexane-2,4-dione] | > 10000 | 202 nM and 286 nM |  | 98.4
6 | CC12C(=O)N(c3cc(Cl)cc(Cl)c3)C(=O)C1C2(c1ccncc1)c1ccc(OC(F)(F)F)cc1 (single isomer, unassigned) [4x or 4′x diastereomer II (racemate), rac-(1 S, 5S, 6R)- and rac-(1 S, 5S, 6S)-3-(3,5-Dichlorophenyl)-1-methyl-6-(pyridin-4-yl)-6-[4-(trifluoromethoxy)phenyl]-3-azabicyclo[3.1.0]hexane-2,4-dione] |  | > 1000 nM |  | 76.9
7 | O=C1[C@@H]2[C@H](C(=O)N1c1cc(Cl)cc(Cl)c1)C2(c1ccc(OC(F)(F)F)cc1)c1ccc(OC(F)(F)F)cc1 [Compound 4p, 3-(3,5-Dichlorophenyl)-6,6-bis[4-(trifluoromethoxy)phenyl]-3-azabicyclo[3.1.0.]hexane-2,4-dione] |  | > 1000 nM | 74.3 | 
8 | N#Cc1ccc(C2(c3ccc(C#N)cc3)[C@@H]3C(=O)N(c4cc(Cl)cc(Cl)c4)C(=O)[C@@H]32)cc1 [Compound 4u, 4-[6-(4-Cyanophenyl)-3-(3,5-dichlorophenyl)-2,4-dioxo-3-azabicyclo[3.1.0]hexan-6-yl]benzonitrile] |  | > 1000 nM | 87.1 | 
